The text below walks through data of the NIST ThermoML archive (doi:10.1021/je800972b).

± gives the expanded uncertainty stated by the source.

For data set [1] the following is noted: 298.15 K; 101.33 kPa; Liquid.
Data set [2] is described as follows: xn = mol fraction of the nth substance listed. Conditions: 298.15 K, 101 kPa, Liquid, Vibrating tube method.

With `CCCO` [propan-1-ol], in data set [1], the mass density came out at 800.61 ± 0.23 kg/m3.
`C=COCCC` [propyl vinyl ether]: the mass density in data set [1] is listed as 762.69 ± 0.26 kg/m3.
As for `C=COCCC` [propyl vinyl ether] + Cc1ccccc1, the mass density in data set [2] (x1 = 0.0494) is given as 857.3 ± 0.22 kg/m3; in data set [2] (x1 = 0.1002), 852.46 ± 0.22 kg/m3; in data set [2] (x1 = 0.1995) it was 843.05 ± 0.22 kg/m3; in data set [2] (x1 = 0.2999), 833.4 ± 0.22 kg/m3; in data set [2] (x1 = 0.3993), 823.66 ± 0.22 kg/m3; in data set [2] (x1 = 0.5002), 813.73 ± 0.22 kg/m3. For the same compound, the mass density in data set [2] (x1 = 0.5999) was determined as 803.77 ± 0.22 kg/m3; in data set [2] (x1 = 0.6998), 793.65 ± 0.22 kg/m3; in data set [2] (x1 = 0.7999), 783.69 ± 0.22 kg/m3; in data set [2] (x1 = 0.8993) it was 773.56 ± 0.22 kg/m3; in data set [2] (x1 = 0.95), 768.31 ± 0.22 kg/m3.
Regarding `Cc1ccccc1` [toluene], in data set [1], the mass density stood at 862.23 ± 0.18 kg/m3.
